# What was measured:
# Assay type in all cases: in vivo
# [1] = test system: Echinochloa crus-galli (ECHCG); assay: Post-emergence biological efficacy, glasshouse pot test; details: 312 h, post-emergence, 1,000 g/ha, evaluated after 13 days (100=total damage; 0=no damage), read-out: Percentage damage caused to weed species, ECHCG
# Procedure, shortened: (§1)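 Plants were sown in standard soil and grown 8 days in a glasshouse (24/16° C. day/night, 14 hours light, 65% humidity), then sprayed post-emergence at 1000 or 250 g/ha from acetone/water (50:50) with 0.5% Tween 20. Damage was scored visually after 13 days (0 = none, 100 = total).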
# Setaria faberi (SETFA) [2] = assay: as above; details: 312 h, post-emergence, 1,000 g/ha, evaluated after 13 days (100=total damage; 0=no damage), read-out: Percentage damage caused to weed species, SETFA
# Procedure, shortened: as §1
# Solanum nigrum (SOLNI) [3] = assay: as above; details: 312 h, post-emergence, 1,000 g/ha, evaluated after 13 days (100=total damage; 0=no damage), read-out: Percentage damage caused to weed species, SOLNI
# Procedure, shortened: as §1
# [4] = test system: Amaranthus retoflexus (AMARE); assay: as above; details: Amaranthus retroflexus, 312 h; post-emergence, 1,000 g/ha, evaluated after 13 days (100=total damage; 0=no damage); read-out: Percentage damage caused to weed species, AMARE
# Procedure, shortened: as §1
# [5] = test system: Ipomea hederaceae (IPOHE); assay: as above; details: Ipomoea hederacea, 312 h; post-emergence, 1,000 g/ha, evaluated after 13 days (100=total damage; 0=no damage); read-out: Percentage damage caused to weed species, IPOHE
# Procedure, shortened: as §1
# [6] = test system: Alopecurus myosuroides (ALOMY); assay: as above; details: 312 h, post-emergence, 1,000 g/ha, evaluated after 13 days (100=total damage; 0=no damage), read-out: Percentage damage caused to weed species, ALOMY
# Procedure, shortened: as §1
# [7] = test system: Echinochloa crus-galli (ECHCG); assay: Pre-emergence biological efficacy, glasshouse pot test; details: 312 h, pre-emergence, 1,000 g/ha, evaluated after 13 days (100=total damage; 0=no damage), read-out: Percentage damage ECHCG
# Procedure, shortened: (§2)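 One day after seeds were sown in pots, compound was sprayed at 1000 or 250 g/ha. Plants were kept at 24/16 °C with 14 h light and 65% humidity and watered twice daily; damage was graded at day 13 (0 none, 100 total).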
# Setaria faberi (SETFA) [8] = assay: as above; details: 312 h, pre-emergence, 1,000 g/ha, evaluated after 13 days (100=total damage; 0=no damage), read-out: Percentage damage SETFA
# Procedure, shortened: as §2
# Solanum nigrum (SOLNI) [9] = assay: as above; details: 312 h, pre-emergence, 1,000 g/ha, evaluated after 13 days (100=total damage; 0=no damage), read-out: Percentage damage SOLNI
# Procedure, shortened: as §2
# [10] = test system: Amaranthus retoflexus (AMARE); assay: as above; details: Amaranthus retroflexus, 312 h; pre-emergence, 1,000 g/ha, evaluated after 13 days (100=total damage; 0=no damage); read-out: Percentage damage AMARE
# Procedure, shortened: as §2
# [11] = test system: Ipomea hederaceae (IPOHE); assay: as above; details: Ipomoea hederacea, 312 h; pre-emergence, 1,000 g/ha, evaluated after 13 days (100=total damage; 0=no damage); read-out: Percentage damage IPOHE
# Procedure, shortened: as §2
# [12] = test system: Alopecurus myosuroides (ALOMY); assay: as above; details: 312 h, pre-emergence, 1,000 g/ha, evaluated after 13 days (100=total damage; 0=no damage), read-out: Percentage damage ALOMY
# Procedure, shortened: as §2
Structure (SMILES),pest or weed control at 1000 g/ha [1] [%],pest or weed control at 1000 g/ha (Setaria faberi (SETFA) [2]) [%],pest or weed control at 1000 g/ha (Solanum nigrum (SOLNI) [3]) [%],pest or weed control at 1000 g/ha [4] [%],pest or weed control at 1000 g/ha [5] [%],pest or weed control at 1000 g/ha [6] [%],pest or weed control at 1000 g/ha [7] [%],pest or weed control at 1000 g/ha (Setaria faberi (SETFA) [8]) [%],pest or weed control at 1000 g/ha (Solanum nigrum (SOLNI) [9]) [%],pest or weed control at 1000 g/ha [10] [%],pest or weed control at 1000 g/ha [11] [%],pest or weed control at 1000 g/ha [12] [%]
"COC(=O)c1nc(C2CC2)nc(NC(CO)C2CCOCC2)c1Cl (stereo not drawn) [Compound 4-202, 5-Chloro-2-cyclopropyl-4-(2-hydroxy-1-tetrahydropyran-4-yl-ethylamino)-6-methoxycarbonyl-pyrimidine]",0,30,80,100,50,10,30,30,70,60,100,20
"COC(=O)c1nc(C2CC2)nc(NC(CO)c2ccccc2)c1Cl (stereo not drawn) [Compound 4-203, 5-Chloro-2-cyclopropyl-4-(2-hydroxy-1-phenyl-ethylamino)-6-methoxycarbonyl-pyrimidine]",30,40,80,100,50,40,60,60,80,100,100,30
"COC(=O)c1nc(C2CC2)nc(NC(CS(C)(=O)=O)c2ccc(OC)cc2)c1Cl (stereo not drawn) [Compound 4-205, 5-Chloro-2-cyclopropyl-6-methoxycarbonyl-4-[1-(4-methoxy-phenyl)-2-methylsulphonyl-ethylamino]-pyrimidine]",0,0,10,20,20,0,0,0,0,0,0,0
"COC(=O)c1nc(C2CC2)nc(NC(C(=O)OC)c2ccccc2)c1Cl (stereo not drawn) [Compound 4-210, 5-Chloro-2-cyclopropyl-6-methoxycarbonyl-4-(1-methoxy-carbonyl-1-phenyl-methylamino)-pyrimidine]",60,80,40,50,40,60,50,20,90,100,100,20
"CCOC(=O)C(Nc1nc(C2CC2)nc(C(=O)OC)c1Cl)c1ccccc1 (stereo not drawn) [Compound 4-214, 5-Chloro-2-cyclopropyl-4-[(1-ethoxycarbonyl-1-phenyl)-methyl-amino]-6-methoxy-carbonylpyrimidine]",70,70,80,100,100,50,60,40,90,100,100,20

# Reference: US20110086759A1, “CHEMICAL COMPOUNDS” (SYNGENTA CROP PROTECTION, INC., priority 2007, published 2011)
